Here are results for one compound from patent US20120220581A1, “IMIDAZO[1,2-b]PYRIDAZINE DERIVATIVES AND THEIR USE AS PDE10 INHIBITORS” (Janssen-Cilag, S.A., priority 2009, published 2012).

Test [1] has as its system female hooded-Lister rats. Nature of the test: Object recognition test (NOR) after sub-chronic PCP. The class given is in vivo, rat. As for the experimental part: 60 female hooded-Lister rats (Charles River, UK) were used as subjects for these studies and weighed 248 g±20 g. Rats were allowed at least a 7-day acclimatization period to the animal unit prior to commencement of experimentation. Rats were housed in groups of 5 under standard laboratory conditions under a 12 h light:dark cycle, lights on at 0700 h. All testing was carried out in the light phase. Food and water were freely provided. All experiments were conducted in accordance with the Animals Scientific Procedures Act, U.K. 1986 and were approved by the University of Bradford ethical review panel.
40 mg of test compound was dissolved in 5 ml of 40% hydroxypropyl β-cyclodextrin (HPBC) solution. The solution was sonicated until completely dissolved. 2 ml of sterile water was added and the pH measured and adjusted with NaOH solution (0.1N) to obtain pH ˜4. Finally, sterile water was added to a final volume of 10 ml. This stock solution was then diluted in 20% HPBC to obtain the final concentrations. 100 mg of PQ10 was dissolved in a 40% HPBC solution and 8 mg of tartaric acid. The solution was sonicated until completely dissolved. 5 ml of sterile water was added and the pH measured and adjusted with NaOH solution (0.1N) to obtain pH ˜4. Finally sterile water was added to a final volume of 10 ml.
Test compound was administered at doses of 0.3 and 1.0 mg/kg via the oral route 30 min prior to testing.
PQ10 was administered at a dose of 1.0 mg/kg via the oral route 30 min prior to testing.
Certain pre-clinical tests allow the observation of relatively subtle cognitive deficits in the rat that resemble cognitive symptoms in subjects with schizophrenia. The cognitive deficits observed are seen in behaviours such as episodic memory, which can be measured by recognition tasks such as the novel object recognition (NOR) paradigm. A recognition memory task allows the comparison between presented stimuli and previously stored information. Ennaceur, A Delacour, J (1988) A new one-trial test for neurobiological studies of memory in rats Behav Brain Res 31: 47-59 described the NOR test in rats which was based on the differential exploration of familiar and new objects. The NOR test is a non-rewarded, ethologically relevant paradigm based on the spontaneous exploratory behaviour of rats that measures episodic memory. Each session consists of two trials. In the first trial, the rats are exposed to two identical objects in an open field. During the second trial, rats are exposed to two dissimilar objects, one familiar object from the first trial and one new object. Object recognition in rats can be measured as the difference in time spent exploring the familiar and the new object. […] The duration of each trial is also important as a preference for the novel object only lasts during the first 1 or 2 minutes, after which time preference diminishes as both objects become familiar and are explored equally.
Rats were randomly assigned to the 8 treatment groups
Rats were allowed to habituate to the empty test box and the behavioural test room environment for 1 h on day 1. Prior to behavioural testing on day 2 rats were given a further 3 min habituation.
Following the 3 min habituation period, the rats were given two 3 min trials (T1 and T2) which were separated by a 1 min inter-trial interval in the home cage during which the objects were changed.
In this trial, the animals were allowed to explore two identical objects (A1 and A2) for 3 min.
In this trial, the animals explored a familiar object (A) from T1 and a novel object (B) for 3 min. The familiar object presented during T2 was a duplicate of the object presented in T1 in order to avoid any olfactory trails.
The object exploration was defined by animals licking, sniffing or touching the object with the forepaws whilst sniffing, but not leaning against, turning around, standing or sitting on the object. […]

Test [2] has as its system female hooded-Lister rats. The description is as above. The class given is in vivo, rat. The conditions noted are these: PCP + 1 mg/kg p.o., Day 1, 3 min retention trial, mean.

For `COc1cc2ncnc(N3CC[C@@H](Oc4cnc5ccccc5n4)C3)c2cc1OC` [PQ10, reference compound], in test [1] (PCP + 1 mg/kg p.o., mean), the “DI (discrimination index)” value was 0.4193 and the “LMA (no. of lines crossed)” value is 65.5 no. of lines crossed. In addition, the “effects of acute treatment in the NOR task” value in test [1] (acute treatment, oral route 30 min prior to testing, compound 1 0.3-1.0 mg/kg, PQ10 1.0 mg/kg, sub-chronic PCP female rats) is “selective for the retention phase”. Moreover, in test [2], the “T2(A) exploration time of familiar object, retention trial” value turned out to be 7.9 s and the “T2(B) exploration time of novel object, retention trial” value is 19.9 s.
